The target of experiment [1] is T1, heparin-induced aggregated tau (aTau), full-length 2N4R human Tau (Homo sapiens, UniProt P10636).
T1 construct: transformed with a full-length 2N4R tau expression plasmid; made in house; host or cells: E. coli BL21
In words: In vitro fluorometric aTau binding assay. As to conditions: 0.04 μM aTau, serially diluted compound 10 to 0.00017 μM, 37° C. 1 hour, fluorescence. How it is done:
(§1) (A) Expression and purification of human Tau: 1 mM IPTG (Sangon Biotech, Cat. No A100487) was used to induce production of tau by bacteria (BL21, Invitrogen, Cat. No C600003) transformed with a full-length 2N4R tau expression plasmid. After 3 hours, cell pellet was resuspended in lysis buffer (100 mM PIPES, 1 mM EGTA, 1 mM MgSO4, pH 6.8) and lysed by sonication followed by centrifugation (15,000 rpm, 15 min, 4° C.). The supernatant was then placed in a boiling water bath for 20 min, followed by centrifugation (15,000 rpm, 15 min, 4° C.). Supernatant was loaded onto a Q-Sepharose® Fast Flow column (GE healthcare, Cat. No 17-0510-01), the flow-through fraction was loaded onto an SP-Sepharose® Fast Flow column (GE healthcare, Cat. No 17-0729-01), and tau protein was eluted with elution buffer (100 mM PIPES, 1 M NaCl, 1 mM EGTA, 1 mM MgSO4, 0.2 M NaCl, pH 6.8). Collected fractions of tau-containing eluates were pooled, concentrated and dialyzed against HEPES buffer (25 mM HEPES, 0.1 mM EDTA, 0.5 mM DTT, 100 mM NaCl, pH 7.2) and stored at −80° C. in small aliquots until use. Protein concentration was determined by UV absorption.
(§2) (B) Preparation of heparin-induced aggregated tau (aTau): 2 μM of tau prepared in 30 mM Tris-HCl, pH 7.5 buffer was incubated in tube with 15 μM heparin (Sigma, Cat. No H3149) at 37° C. for 24 hours.
(D) In vitro fluorometric aTau binding assays: 2 μM aTau was diluted to 0.04 μM with 30 mM Tris-HCl (pH 6.8), and then incubated with serially diluted compound (three-fold serial dilutions, from 10 to 0.00017 μM) in a 96-well plate (Corning, Cat. No 3573) at 37° C. for 1 hour. Fluorescence intensity (excitation/emission=370/500 nm) of APN-0729 was read by microplate spectrometer (EnSpire 2300, PerkinElmer). Compound Kd values were calculated using the following equation: Y=Bmax* X (Kd+X), where X is the concentration of compound; Y is the fluorescence signal of (compound+aTau)−(compound+DMSO); and Bmax is the maximum signal.

The target in experiment [2] is T1, heparin-induced aggregated tau (aTau), full-length 2N4R human Tau. In words: PBB5 competition assay. Format: binding. The settings on record: 0.12 μM aTau. How it is done: as §1, §2
(E) PBBS competition assay: 2 μM of aTau was diluted to 0.12 μM by […] (pH 6.8) and then incubated with 0.1 μM 2-(4-(2-(methylamino)pyridine-5-yl)-1,3-butadiene-1-yl)benzothiazole-6-ol (PBB5) and serially diluted compound (three-fold serial dilution, from 10 to 0.00017 μM) in a 96-well plate (Corning, Cat. No 3573) at 37° C. for 1 hour. Fluorescence intensity (excitation/emission=530/690 nm) of PBB5 was read by microplate spectrometer (EnSpire 2300, PerkinElmer). Percentage of competition was calculated using the following equation: (Max−well of compound alone)/(Max−Min)*100%, where Max=(Tau+PBB5) signals−(buffer+PBB5) signals; and Min=(buffer+PBB5) signals−(buffer+PBB5) signals.
The IC50 value of each compound was calculated with GraphPad Prism software using the “4 Parameter Logistic Model or Sigmoidal Dose-Response Model”:
Y=Bottom+(Top−Bottom)/(1+(IC50/×)^HillSlope)

T1 sequence (P10636 1-441 isoform P10636-8): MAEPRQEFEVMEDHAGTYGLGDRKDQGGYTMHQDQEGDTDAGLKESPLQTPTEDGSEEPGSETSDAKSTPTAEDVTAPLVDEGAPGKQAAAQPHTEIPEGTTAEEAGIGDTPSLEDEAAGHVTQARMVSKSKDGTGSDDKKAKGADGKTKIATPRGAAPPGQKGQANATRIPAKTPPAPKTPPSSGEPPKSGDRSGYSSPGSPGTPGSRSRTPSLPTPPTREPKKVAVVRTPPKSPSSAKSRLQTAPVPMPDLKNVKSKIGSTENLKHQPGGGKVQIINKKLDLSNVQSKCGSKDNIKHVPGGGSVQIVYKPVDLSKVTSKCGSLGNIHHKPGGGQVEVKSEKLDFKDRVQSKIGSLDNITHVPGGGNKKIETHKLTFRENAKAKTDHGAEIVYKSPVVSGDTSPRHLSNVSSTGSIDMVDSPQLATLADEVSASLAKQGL

In general, Kd refers to the concentration at which binding is half-saturated. Higher therefore signals weaker binding. One may read the IC50 as the concentration at which inhibition is half-maximal. The compound `CN(C)c1ccc(-c2ccc(-c3nc4ccc(NCCOCCOc5ccc6c(c5)CN(C5CCC(=O)NC5=O)C6=O)cc4s3)cc2)cn1` (stereo not drawn) [Compound 160313, 3-[6-[2-[2-[[2-[4-[6-(dimethylamino)pyridin-3-yl]phenyl]-1,3-benzothiazol-6-yl]amino]ethoxy]ethoxy]-3-oxo-1H-isoindol-2-yl]piperidine-2,6-dione] yielded a Kd in experiment [1] of 80 nM. For the same compound, the IC50 in experiment [2] (0.1 μM PBB5, 37° C. 1 hour, PBB5 fluorescence 530/690 nm) turned out to be 220 nM. For the same compound, in experiment [2] (0.1 μM PBB5, compound up to 10 μM, read-out: Competition Assay with PBB5: Bmax (%)), the Emax was determined as 64%.

The values are drawn from patent publication US20220354835A1, “COMPOUNDS FOR DEGRADING TAU PROTEIN AGGREGATES AND USES THEREOF” (Aprinoia Therapeutics Limited, priority 2019, published 2022).
